The values that follow come from publication PMC6384703, “Astilbin Inhibits the Activity of Sortase A from Streptococcus mutans” (Molecules, 2019).

The experiment has as its target T1, sortase A (SrtA) (Streptococcus mutans, UniProt Q8CM62).
T1 construct: His-tagged recombinant SrtA from a 741 bp DNA fragment (pET28SmsrtA), S. mutans ATCC 25175
The experiment in a line: FRET assay with purified SrtA and fluorescent peptide Abz-LPATG-Dap(Dnp)-NH2; supported by mutants with reduced inhibition. Format: biochemical.

T1 sequence (Q8CM62 entry or part of it): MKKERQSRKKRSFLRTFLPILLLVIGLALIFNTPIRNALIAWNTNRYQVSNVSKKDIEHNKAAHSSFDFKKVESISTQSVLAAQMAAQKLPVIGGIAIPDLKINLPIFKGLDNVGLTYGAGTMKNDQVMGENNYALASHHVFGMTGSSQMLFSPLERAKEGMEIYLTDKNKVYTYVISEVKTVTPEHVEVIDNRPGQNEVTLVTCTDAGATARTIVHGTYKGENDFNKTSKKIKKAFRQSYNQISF

One may read the IC50 as the concentration at which inhibition is half-maximal. High values mean weaker potency in that assay, low ones greater potency in that assay. With `C[C@@H]1O[C@@H](O[C@H]2C(=O)c3c(O)cc(O)cc3O[C@@H]2c2ccc(O)c(O)c2)[C@H](O)[C@H](O)[C@H]1O` [astilbin], the concentration for half-maximal inhibition (IC50) is 16.7 µM.
